From patent US20140343000A1 (priority 2011, published 2014)

System: recombinant NL4-3 virus (Renilla luciferase in nef, Gag P373S; NLRluc) in MT-2 cells
Test: whole plant or invertebrate
Assay type: cell-based, HIV
Details: Renilla, NL43, luciferase activity in cells infected for 4-5 days with NLRluc recombinants, serial dilutions of inhibitor; class symbols (key in Table 1); read-out: EC50
Summary of the method: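 Read-out is Renilla luciferase, measured immediately after adding a premixed lysis/Dual Luciferase reagent. The reporter virus, NL4-3 with luciferase replacing part of nef plus Gag P373S, infected MT-2 cells for 4–5 days under serially diluted inhibitor.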

| Compound | EC50 [nM] |
| --- | --- |
| C=C(C)[C@@H]1CC[C@]2(NC(=O)N(C)CCN(C)C)CC[C@]3(C)[C@H](CC[C@@H]4[C@@]5(C)CC=C(c6ccc(C(=O)O)cc6)C(C)(C)[C@@H]5CC[C@]43C)[C@@H]12 [Example 24, 4-((1R,3aS,5aR,5bR,7aR,11aS,11bR,13aR,13bR)-3a-(3-(2-(dimethylamino)ethyl)-3-methylureido)-5a,5b,8,8,11a-pentamethyl-1-(prop-1-en-2-yl)-2,3,3a,4,5,5a,5b,6,7,7a,8,11,11a,11b,12,13,13a,13b-octadecahydro-1H-cyclopenta[a]chrysen-9-yl)benzoic acid] | < 100 |
| C=C(C)[C@@H]1CC[C@]2(NC(=O)N(C)CCn3ccnc3)CC[C@]3(C)[C@H](CC[C@@H]4[C@@]5(C)CC=C(c6ccc(C(=O)O)cc6)C(C)(C)[C@@H]5CC[C@]43C)[C@@H]12 [Example 25, 4-((1R,3aS,5aR,5bR,7aR,11aS,11bR,13aR,13bR)-3a-(3-(2-(1H-imidazol-1-yl)ethyl)-3-methylureido)-5a,5b,8,8,11a-pentamethyl-1-(prop-1-en-2-yl)-2,3,3a,4,5,5a,5b,6,7,7a,8,11,11a,11b,12,13,13a,13b-octadecahydro-1H-cyclopenta[a]chrysen-9-yl)benzoic acid] | < 100 |
| C=C(C)[C@@H]1CC[C@]2(NC(=O)NCCNC(C)=O)CC[C@]3(C)[C@H](CC[C@@H]4[C@@]5(C)CC=C(c6ccc(C(=O)O)cc6)C(C)(C)[C@@H]5CC[C@]43C)[C@@H]12 [Example 26, 4-((1R,3aS,5aR,5bR,7aR,11aS,11bR,13aR,13bR)-3a-(3-(2-acetamidoethyl)ureido)-5a,5b,8,8,11a-pentamethyl-1-(prop-1-en-2-yl)-2,3,3a,4,5,5a,5b,6,7,7a,8,11,11a,11b,12,13,13a,13b-octadecahydro-1H-cyclopenta[a]chrysen-9-yl)benzoic acid] | < 100 |
| C=C(C)[C@@H]1CC[C@]2(NC(=O)NCCN3CCCCC3=O)CC[C@]3(C)[C@H](CC[C@@H]4[C@@]5(C)CC=C(c6ccc(C(=O)O)cc6)C(C)(C)[C@@H]5CC[C@]43C)[C@@H]12 [Example 27, 4-((1R,3aS,5aR,5bR,7aR,11aS,11bR,13aR,13bR)-5a,5b,8,8,11a-pentamethyl-3a-(3-(2-(2-oxopiperidin-1-yl)ethyl)ureido)-1-(prop-1-en-2-yl)-2,3,3a,4,5,5a,5b,6,7,7a,8,11,11a,11b,12,13,13a,13b-octadecahydro-1H-cyclopenta[a]chrysen-9-yl)benzoic acid] | < 100 |
| C=C(C)[C@@H]1CC[C@]2(NC(=O)N(CCCN(C)C)CCCN(C)C)CC[C@]3(C)[C@H](CC[C@@H]4[C@@]5(C)CC=C(c6ccc(C(=O)O)cc6)C(C)(C)[C@@H]5CC[C@]43C)[C@@H]12 [Example 30, 4-((1R,3aS,5aR,5bR,7aR,11aS,11bR,13aR,13bR)-3a-(3,3-bis(3-(dimethylamino)propyl)ureido)-5a,5b,8,8,11a-pentamethyl-1-(prop-1-en-2-yl)-2,3,3a,4,5,5a,5b,6,7,7a,8,11,11a,11b,12,13,13a,13b-octadecahydro-1H-cyclopenta[a]chrysen-9-yl)benzoic acid] | < 100 |
| C=C(C)[C@@H]1CC[C@]2(NC(=O)NCC(=O)N(C)C)CC[C@]3(C)[C@H](CC[C@@H]4[C@@]5(C)CC=C(c6ccc(C(=O)O)cc6)C(C)(C)[C@@H]5CC[C@]43C)[C@@H]12 [Example 31, 4-((1R,3aS,5aR,5bR,7aR,11aS,11bR,13aR,13bR)-3a-(3-(2-(dimethylamino)-2-oxoethyl)ureido)-5a,5b,8,8,11a-pentamethyl-1-(prop-1-en-2-yl)-2,3,3a,4,5,5a,5b,6,7,7a,8,11,11a,11b,12,13,13a,13b-octadecahydro-1H-cyclopenta[a]chrysen-9-yl)benzoic acid] | < 100 |
| C=C(C)[C@@H]1CC[C@]2(NC(=O)NCCC(=O)O)CC[C@]3(C)[C@H](CC[C@@H]4[C@@]5(C)CC=C(c6ccc(C(=O)O)cc6)C(C)(C)[C@@H]5CC[C@]43C)[C@@H]12 [Example 33, 4-((1R,3aS,5aR,5bR,7aR,11aS,11bR,13aR,13bR)-3a-(3-(2-carboxyethyl)ureido)-5a,5b,8,8,11a-pentamethyl-1-(prop-1-en-2-yl)-2,3,3a,4,5,5a,5b,6,7,7a,8,11,11a,11b,12,13,13a,13b-octadecahydro-1H-cyclopenta[a]chrysen-9-yl)benzoic acid] | < 100 |
| C=C(C)[C@@H]1CC[C@]2(NC(=O)N3CCCN(C(C)=O)CC3)CC[C@]3(C)[C@H](CC[C@@H]4[C@@]5(C)CC=C(c6ccc(C(=O)O)cc6)C(C)(C)[C@@H]5CC[C@]43C)[C@@H]12 [Example 35, 4-((1R,3aS,5aR,5bR,7aR,11aS,11bR,13aR,13bR)-3a-(4-acetyl-1,4-diazepane-1-carboxamido)-5a,5b,8,8,11a-pentamethyl-1-(prop-1-en-2-yl)-2,3,3a,4,5,5a,5b,6,7,7a,8,11,11a,11b,12,13,13a,13b-octadecahydro-1H-cyclopenta[a]chrysen-9-yl)benzoic acid] | < 100 |
| C=C(C)[C@@H]1CC[C@]2(NC(=O)OC)CC[C@]3(C)[C@H](CC[C@@H]4[C@@]5(C)CC=C(c6ccc(C(=O)O)cc6)C(C)(C)[C@@H]5CC[C@]43C)[C@@H]12 [Example 36, 4-((1R,3aS,5aR,5bR,7aR,11aS,11bR,13aR,13bR)-3a-(methoxycarbonylamino)-5a,5b,8,8,11a-pentamethyl-1-(prop-1-en-2-yl)-2,3,3a,4,5,5a,5b,6,7,7a,8,11,11a,11b,12,13,13a,13b-octadecahydro-1H-cyclopenta[a]chrysen-9-yl)benzoic acid] | < 100 |
| C=C(C)[C@@H]1CC[C@]2(NC(=O)N3CCN(CCO)CC3)CC[C@]3(C)[C@H](CC[C@@H]4[C@@]5(C)CC=C(c6ccc(C(=O)O)cc6)C(C)(C)[C@@H]5CC[C@]43C)[C@@H]12 [Example 38, 4-((1R,3aS,5aR,5bR,7aR,11aS,11bR,13aR,13bR)-3a-(4-(2-hydroxyethyl)piperazine-1-carboxamido)-5a,5b,8,8,11a-pentamethyl-1-(prop-1-en-2-yl)-2,3,3a,4,5,5a,5b,6,7,7a,8,11,11a,11b,12,13,13a,13b-octadecahydro-1H-cyclopenta[a]chrysen-9-yl)benzoic acid] | < 100 |
| C=C(C)[C@@H]1CC[C@]2(NC(=O)N3CCN(CCN(C)C)CC3)CC[C@]3(C)[C@H](CC[C@@H]4[C@@]5(C)CC=C(c6ccc(C(=O)O)cc6)C(C)(C)[C@@H]5CC[C@]43C)[C@@H]12 [Example 39, 4-((1R,3aS,5aR,5bR,7aR,11aS,11bR,13aR,13bR)-3a-(4-(2-(dimethylamino)ethyl)piperazine-1-carboxamido)-5a,5b,8,8,11a-pentamethyl-1-(prop-1-en-2-yl)-2,3,3a,4,5,5a,5b,6,7,7a,8,11,11a,11b,12,13,13a,13b-octadecahydro-1H-cyclopenta[a]chrysen-9-yl)benzoic acid] | < 100 |

Same assay, conditions: Renilla, NL43, luciferase activity in cells infected for 4-5 days with NLRluc recombinants, serial dilutions of inhibitor; numeric values; read-out: EC50

| Compound | EC50 [nM] |
| --- | --- |
| C=C(C)[C@@H]1CC[C@]2(NC(=O)NCCN3CCCC3=O)CC[C@]3(C)[C@H](CC[C@@H]4[C@@]5(C)CC=C(c6ccc(C(=O)O)cc6)C(C)(C)[C@@H]5CC[C@]43C)[C@@H]12 [Example 28, 4-((1R,3aS,5aR,5bR,7aR,11aS,11bR,13aR,13bR)-5a,5b,8,8,11a-pentamethyl-3a-(3-(2-(2-oxopyrrolidin-1-yl)ethyl)ureido)-1-(prop-1-en-2-yl)-2,3,3a,4,5,5a,5b,6,7,7a,8,11,11a,11b,12,13,13a,13b-octadecahydro-1H-cyclopenta[a]chrysen-9-yl)benzoic acid] | 4 |
| C=C(C)[C@@H]1CC[C@]2(NC(=O)NCCCN3CCCC3=O)CC[C@]3(C)[C@H](CC[C@@H]4[C@@]5(C)CC=C(c6ccc(C(=O)O)cc6)C(C)(C)[C@@H]5CC[C@]43C)[C@@H]12 [Example 29, 4-((1R,3aS,5aR,5bR,7aR,11aS,11bR,13aR,13bR)-5a,5b,8,8,11a-pentamethyl-3a-(3-(3-(2-oxopyrrolidin-1-yl)propyl)ureido)-1-(prop-1-en-2-yl)-2,3,3a,4,5,5a,5b,6,7,7a,8,11,11a,11b,12,13,13a,13b-octadecahydro-1H-cyclopenta[a]chrysen-9-yl)benzoic acid] | 10 |
| C=C(C)[C@@H]1CC[C@]2(NC(=O)N(C)C)CC[C@]3(C)[C@H](CC[C@@H]4[C@@]5(C)CC=C(c6ccc(C(=O)O)cc6)C(C)(C)[C@@H]5CC[C@]43C)[C@@H]12 [Example 32, 4-((1R,3aS,5aR,5bR,7aR,11aS,11bR,13aR,13bR)-3a-(3,3-dimethylureido)-5a,5b,8,8,11a-pentamethyl-1-(prop-1-en-2-yl)-2,3,3a,4,5,5a,5b,6,7,7a,8,11,11a,11b,12,13,13a,13b-octadecahydro-1H-cyclopenta[a]chrysen-9-yl)benzoic acid] | 10 |
| C=C(C)[C@@H]1CC[C@]2(NC(=O)N3CCCN(C)CC3)CC[C@]3(C)[C@H](CC[C@@H]4[C@@]5(C)CC=C(c6ccc(C(=O)O)cc6)C(C)(C)[C@@H]5CC[C@]43C)[C@@H]12 [Example 34, 4-((1R,3aS,5aR,5bR,7aR,11aS,11bR,13aR,13bR)-5a,5b,8,8,11a-pentamethyl-3a-(4-methyl-1,4-diazepane-1-carboxamido)-1-(prop-1-en-2-yl)-2,3,3a,4,5,5a,5b,6,7,7a,8,11,11a,11b,12,13,13a,13b-octadecahydro-1H-cyclopenta[a]chrysen-9-yl)benzoic acid] | 2 |
| C=C(C)[C@@H]1CC[C@]2(NC(=O)N3CCN(C4CCCC4)C(=O)C3)CC[C@]3(C)[C@H](CC[C@@H]4[C@@]5(C)CC=C(c6ccc(C(=O)O)cc6)C(C)(C)[C@@H]5CC[C@]43C)[C@@H]12 [Example 37, 4-((1R,3aS,5aR,5bR,7aR,11aS,11bR,13aR,13bR)-3a-(4-cyclopentyl-3-oxopiperazine-1-carboxamido)-5a,5b,8,8,11a-pentamethyl-1-(prop-1-en-2-yl)-2,3,3a,4,5,5a,5b,6,7,7a,8,11,11a,11b,12,13,13a,13b-octadecahydro-1H-cyclopenta[a]chrysen-9-yl)benzoic acid] | 4 |
